Experimental data: paper PMC4621900, “Ebselen inhibits QSOX1 enzymatic activity and suppresses invasion of pancreatic and renal cancer cell lines” (Oncotarget, 2015)

Assays:
glucose oxidase (GOx) = glucose oxidase (GOx) (Aspergillus niger, UniProt P13006); assay: luminescent (ROS-Glo) H2O2-detection enzyme assay, counter-screen; assay type: biochemical
[1] = target: T1, Quiescin sulfhydryl oxidase 1 (QSOX1) (Homo sapiens, UniProt O00391); assay: intact-protein LC-ESI-MS of covalent adducts and maleimide protection assay; IC50 from purified-enzyme luminescent H2O2 assay, confirmed by HVA fluorescence assay; assay type: biochemical
T1 construct: amino acids 33–546 of QSOX1-S, N-terminal poly-histidine tag (rQSOX1)
T1 sequence (O00391 33-546): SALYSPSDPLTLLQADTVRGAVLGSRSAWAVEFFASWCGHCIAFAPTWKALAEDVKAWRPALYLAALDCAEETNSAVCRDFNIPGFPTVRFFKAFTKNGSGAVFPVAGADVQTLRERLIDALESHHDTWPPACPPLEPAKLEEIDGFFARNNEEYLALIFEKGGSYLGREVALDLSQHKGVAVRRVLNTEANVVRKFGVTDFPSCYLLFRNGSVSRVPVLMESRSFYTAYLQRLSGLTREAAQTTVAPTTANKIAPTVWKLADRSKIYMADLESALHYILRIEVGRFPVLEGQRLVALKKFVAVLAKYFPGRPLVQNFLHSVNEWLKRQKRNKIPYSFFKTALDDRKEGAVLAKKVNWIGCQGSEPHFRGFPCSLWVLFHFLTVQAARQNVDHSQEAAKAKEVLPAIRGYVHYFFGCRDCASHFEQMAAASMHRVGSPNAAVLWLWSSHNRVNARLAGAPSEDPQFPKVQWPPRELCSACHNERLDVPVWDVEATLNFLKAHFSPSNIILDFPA

Chain of glucose oxidase (GOx) (P13006 17-605): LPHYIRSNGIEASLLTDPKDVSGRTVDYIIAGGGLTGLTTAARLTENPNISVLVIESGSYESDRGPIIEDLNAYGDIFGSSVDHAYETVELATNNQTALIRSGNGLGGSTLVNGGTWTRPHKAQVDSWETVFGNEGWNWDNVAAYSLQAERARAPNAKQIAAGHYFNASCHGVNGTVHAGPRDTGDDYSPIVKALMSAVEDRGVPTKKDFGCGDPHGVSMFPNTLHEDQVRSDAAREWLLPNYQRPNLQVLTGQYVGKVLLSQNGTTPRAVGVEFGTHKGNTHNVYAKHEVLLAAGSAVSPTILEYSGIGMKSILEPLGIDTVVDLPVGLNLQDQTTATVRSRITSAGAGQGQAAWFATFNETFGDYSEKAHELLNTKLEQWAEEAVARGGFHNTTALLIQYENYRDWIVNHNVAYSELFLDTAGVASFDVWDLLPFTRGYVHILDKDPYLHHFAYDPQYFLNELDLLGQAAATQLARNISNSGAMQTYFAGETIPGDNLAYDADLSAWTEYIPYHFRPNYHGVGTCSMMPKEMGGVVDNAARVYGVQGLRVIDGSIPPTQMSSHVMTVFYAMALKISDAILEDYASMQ

Compound `O=c1c2ccccc2[se]n1-c1ccccc1` [ebselen, 2-phenyl-1,2-benzisoselenazol-3(2H)-one] has an IC50 (glucose oxidase (GOx)) of 20.5 µM and an IC50 [1] of 5.4 µM.
